Experimental data taken from ChEMBL document CHEMBL3826932, “An orally available tyrosine kinase ALK and RET dual inhibitor bearing the tetracyclic benzo[b]carbazolone core” (Eur J Med Chem, 2016).
Calls of active or inactive are those of the source. No cut-off for these calls is given here.

Key:
[1] = cells; details: Homo sapiens, SUP-M2, 72 h
Description: Antiproliferative activity against human SUP-M2 cells after 72 hrs by SRB/CCK-8 assay

[2] = animal or person; details: Mus musculus, NIH3T3, po, 240 h, read-out: TGI
Description: Antitumor activity against mouse NIH/3T3 cells expressing EML4-ALK L1196M mutant xenografted in nude mouse assessed as tumor growth inhibition at 50 mg/kg, po qd administered for 10 days

[3] = cells; details: Homo sapiens, KARPAS-299, 72 h
Description: Antiproliferative activity against human KARPAS299 cells after 72 hrs by SRB/CCK-8 assay

[4] = tested on: NIH3T3; assay: Antitumor activity against mouse NIH/3T3 cells expressing EML4-ALK L1196M mutant xenografted in nude mouse assessed as partial tumor regression at 50 mg/kg, po qd administered for 10 days; type: functional, organism-based
[5] = tested on: NIH3T3; assay: Antitumor activity against mouse NIH/3T3 cells expressing EML4-ALK L1196M mutant xenografted in nude mouse assessed as tumor stasis at 50 mg/kg, po qd administered for 10 days; type: functional, organism-based
[6] = cells; details: Homo sapiens, SU-DHL-1, 72 h
Description: Antiproliferative activity against human SU-DHL1 cells after 72 hrs by SRB/CCK-8 assay

[7] = cells; details: Mus musculus, NIH3T3, 72 h
Description: Antiproliferative activity against mouse NIH/3T3 cells expressing EML4-ALK L1196 mutant after 72 hrs by SRB/CCK-8 assay

[8] = animal or person; details: Mus musculus, NIH3T3, po, 240 h, read-out: TGI; remark: listed apart in the source
Description: Antitumor activity against mouse NIH/3T3 cells expressing wild type EML4-ALK xenografted in nude mouse assessed as tumor growth inhibition at 50 mg/kg, po qd administered for 10 days

[9] = cells; details: Mus musculus, NIH3T3, 72 h; remark: listed apart in the source
Description: Antiproliferative activity against mouse NIH/3T3 cells expressing wild type EML4-ALK after 72 hrs by SRB/CCK-8 assay

[10] = cells; details: Homo sapiens, NCI-H3122, 72 h
Description: Antiproliferative activity against human NCI-H3122 cells after 72 hrs by SRB/CCK-8 assay

[11] = biological target: Platelet-derived growth factor receptor alpha (Homo sapiens, UniProt P16234); assay: Inhibition of N-terminal His6-tagged recombinant human PDGFRalpha (550 residues) expressed in insect Sf21 cells using poly(Glu,Tyr)4:1 as substrate incubated for 60 mins by ELISA
Sequence of Platelet-derived growth factor receptor alpha (P16234 whole entry): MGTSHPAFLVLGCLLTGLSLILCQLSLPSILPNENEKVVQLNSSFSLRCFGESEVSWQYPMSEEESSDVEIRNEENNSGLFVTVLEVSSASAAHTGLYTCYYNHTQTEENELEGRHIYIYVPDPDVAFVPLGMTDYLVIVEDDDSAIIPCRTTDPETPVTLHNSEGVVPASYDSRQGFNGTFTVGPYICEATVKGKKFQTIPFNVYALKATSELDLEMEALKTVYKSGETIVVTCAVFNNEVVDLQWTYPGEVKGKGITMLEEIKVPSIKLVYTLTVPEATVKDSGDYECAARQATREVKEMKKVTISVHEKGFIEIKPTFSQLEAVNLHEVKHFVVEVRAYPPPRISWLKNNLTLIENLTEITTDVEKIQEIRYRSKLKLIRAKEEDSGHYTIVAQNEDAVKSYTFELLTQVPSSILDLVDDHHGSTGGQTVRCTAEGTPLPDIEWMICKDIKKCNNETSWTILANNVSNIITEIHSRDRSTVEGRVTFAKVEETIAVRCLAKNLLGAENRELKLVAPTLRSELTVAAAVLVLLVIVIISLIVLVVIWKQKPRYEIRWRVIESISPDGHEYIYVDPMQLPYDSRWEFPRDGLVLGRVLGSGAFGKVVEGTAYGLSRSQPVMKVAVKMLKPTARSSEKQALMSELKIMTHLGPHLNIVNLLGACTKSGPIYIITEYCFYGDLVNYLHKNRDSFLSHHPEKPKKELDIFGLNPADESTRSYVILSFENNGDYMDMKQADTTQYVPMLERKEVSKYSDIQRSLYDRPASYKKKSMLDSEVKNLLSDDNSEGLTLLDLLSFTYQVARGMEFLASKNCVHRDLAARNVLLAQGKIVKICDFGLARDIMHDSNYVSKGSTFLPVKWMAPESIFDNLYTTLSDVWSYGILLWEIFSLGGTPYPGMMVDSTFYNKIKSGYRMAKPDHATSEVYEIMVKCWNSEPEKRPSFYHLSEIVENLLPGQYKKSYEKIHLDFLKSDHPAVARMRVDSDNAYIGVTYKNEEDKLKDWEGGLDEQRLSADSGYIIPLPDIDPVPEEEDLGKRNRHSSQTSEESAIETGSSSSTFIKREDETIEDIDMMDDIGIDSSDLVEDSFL

[12] = biological target: Receptor-type tyrosine-protein kinase FLT3 (Homo sapiens, UniProt P36888); assay: Inhibition of N-terminal GST-tagged recombinant human FLT3 (564 residues) expressed in insect Sf21 cells using poly(Glu,Tyr)4:1 as substrate incubated for 60 mins by ELISA
Sequence of Receptor-type tyrosine-protein kinase FLT3 (P36888 whole entry): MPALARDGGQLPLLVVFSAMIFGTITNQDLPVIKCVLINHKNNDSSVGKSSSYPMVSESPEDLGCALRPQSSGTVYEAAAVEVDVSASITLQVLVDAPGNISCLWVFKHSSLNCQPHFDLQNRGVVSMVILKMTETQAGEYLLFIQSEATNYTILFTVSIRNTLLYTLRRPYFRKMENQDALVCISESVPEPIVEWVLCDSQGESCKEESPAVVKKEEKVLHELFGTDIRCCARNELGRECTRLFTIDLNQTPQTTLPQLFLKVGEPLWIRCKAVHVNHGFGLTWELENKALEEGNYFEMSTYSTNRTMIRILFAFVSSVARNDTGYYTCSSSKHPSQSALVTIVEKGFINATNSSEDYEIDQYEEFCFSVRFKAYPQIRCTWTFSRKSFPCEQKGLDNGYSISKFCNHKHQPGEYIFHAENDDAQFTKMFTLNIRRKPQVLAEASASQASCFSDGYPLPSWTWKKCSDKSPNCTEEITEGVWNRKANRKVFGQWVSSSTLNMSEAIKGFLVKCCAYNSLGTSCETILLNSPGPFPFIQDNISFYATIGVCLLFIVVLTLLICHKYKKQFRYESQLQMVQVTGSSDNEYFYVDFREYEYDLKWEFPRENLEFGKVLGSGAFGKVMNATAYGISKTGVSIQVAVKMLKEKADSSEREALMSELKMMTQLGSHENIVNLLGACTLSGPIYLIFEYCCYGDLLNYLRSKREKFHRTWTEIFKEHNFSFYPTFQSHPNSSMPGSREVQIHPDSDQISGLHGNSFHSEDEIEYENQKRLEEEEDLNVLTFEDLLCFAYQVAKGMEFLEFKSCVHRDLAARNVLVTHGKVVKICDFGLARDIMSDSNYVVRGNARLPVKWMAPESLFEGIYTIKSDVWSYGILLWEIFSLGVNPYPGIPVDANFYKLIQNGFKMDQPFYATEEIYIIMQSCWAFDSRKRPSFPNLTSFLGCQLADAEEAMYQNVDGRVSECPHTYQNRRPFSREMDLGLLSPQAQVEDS

[13] = biological target: Proto-oncogene tyrosine-protein kinase Src (Homo sapiens, UniProt P12931); assay: Inhibition of recombinant human c-Src expressed in insect Sf9 cells using poly(Glu,Tyr)4:1 as substrate incubated for 60 mins by ELISA
Sequence of Proto-oncogene tyrosine-protein kinase Src (P12931 2-536 limits assumed): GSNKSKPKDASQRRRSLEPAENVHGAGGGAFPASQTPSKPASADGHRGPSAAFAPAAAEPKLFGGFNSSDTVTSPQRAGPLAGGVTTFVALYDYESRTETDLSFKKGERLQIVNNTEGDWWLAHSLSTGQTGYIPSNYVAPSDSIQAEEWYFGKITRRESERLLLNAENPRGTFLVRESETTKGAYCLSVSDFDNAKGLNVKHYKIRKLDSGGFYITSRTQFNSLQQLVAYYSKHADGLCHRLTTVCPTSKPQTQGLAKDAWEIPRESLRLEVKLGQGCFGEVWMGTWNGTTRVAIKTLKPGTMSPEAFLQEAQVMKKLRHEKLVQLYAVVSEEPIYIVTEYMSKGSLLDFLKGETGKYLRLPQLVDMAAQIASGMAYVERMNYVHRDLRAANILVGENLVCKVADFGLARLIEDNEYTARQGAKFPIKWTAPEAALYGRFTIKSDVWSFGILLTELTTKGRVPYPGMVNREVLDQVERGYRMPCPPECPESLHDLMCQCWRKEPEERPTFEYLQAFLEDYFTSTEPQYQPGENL

[14] = biological target: T1, Proto-oncogene tyrosine-protein kinase receptor Ret (Homo sapiens, UniProt P07949); assay: Inhibition of RET (unknown origin) in mouse BaF3/CCDC6-RET cells assessed as suppression of ERK1/2 phosphorylation at T202/Y204 residue after 1 hr by Western blot analysis; type: cell-based
T1 sequence (P07949 whole entry, the tested form may be a part): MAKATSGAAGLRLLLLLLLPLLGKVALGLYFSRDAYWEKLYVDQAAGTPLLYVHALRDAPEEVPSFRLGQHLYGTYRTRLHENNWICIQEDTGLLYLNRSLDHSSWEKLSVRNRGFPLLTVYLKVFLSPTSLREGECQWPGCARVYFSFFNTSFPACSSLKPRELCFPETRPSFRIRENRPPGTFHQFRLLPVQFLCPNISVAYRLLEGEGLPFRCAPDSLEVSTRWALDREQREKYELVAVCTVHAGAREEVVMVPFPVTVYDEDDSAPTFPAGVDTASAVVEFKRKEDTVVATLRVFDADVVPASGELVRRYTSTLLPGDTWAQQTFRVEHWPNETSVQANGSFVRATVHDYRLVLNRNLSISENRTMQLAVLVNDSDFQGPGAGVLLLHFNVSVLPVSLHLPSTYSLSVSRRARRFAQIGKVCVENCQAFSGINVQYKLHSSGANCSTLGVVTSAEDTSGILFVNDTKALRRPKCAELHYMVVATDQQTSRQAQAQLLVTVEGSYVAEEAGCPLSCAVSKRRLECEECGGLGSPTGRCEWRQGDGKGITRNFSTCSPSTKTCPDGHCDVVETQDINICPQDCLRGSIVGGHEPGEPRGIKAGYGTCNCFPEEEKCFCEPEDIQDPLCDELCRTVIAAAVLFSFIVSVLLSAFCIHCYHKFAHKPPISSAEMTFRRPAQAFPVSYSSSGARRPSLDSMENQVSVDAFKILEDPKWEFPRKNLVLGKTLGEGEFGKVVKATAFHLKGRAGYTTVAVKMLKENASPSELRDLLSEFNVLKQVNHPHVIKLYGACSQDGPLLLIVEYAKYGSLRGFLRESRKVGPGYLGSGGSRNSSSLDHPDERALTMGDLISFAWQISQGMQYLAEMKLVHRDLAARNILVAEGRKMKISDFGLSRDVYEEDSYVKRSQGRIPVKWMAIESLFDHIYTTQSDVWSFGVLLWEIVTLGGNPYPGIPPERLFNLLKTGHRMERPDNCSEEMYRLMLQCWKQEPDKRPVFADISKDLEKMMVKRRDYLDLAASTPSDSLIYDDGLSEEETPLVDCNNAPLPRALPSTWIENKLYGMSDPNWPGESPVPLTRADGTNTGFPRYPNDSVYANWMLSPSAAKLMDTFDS

[15] = biological target: Fibroblast growth factor receptor 1 (Homo sapiens, UniProt P11362); assay: Inhibition of N-terminal GST-tagged recombinant human FGFR1 (456 to 765 residues) expressed in insect Sf21 cells using poly(Glu,Tyr)4:1 as substrate incubated for 60 mins by ELISA
[16] = biological target: T1, Proto-oncogene tyrosine-protein kinase receptor Ret; assay: Inhibition of RET (unknown origin) in mouse BaF3/CCDC6-RET cells assessed as suppression of STAT3 phosphorylation at Y705 residue after 1 hr by Western blot analysis; type: cell-based
[17] = biological target: Vascular endothelial growth factor receptor 1 (Homo sapiens, UniProt P17948); assay: Inhibition of N-terminal GST-tagged recombinant human FLT1 (783 residues) expressed in insect Sf21 cells using poly(Glu,Tyr)4:1 as substrate incubated for 60 mins by ELISA
[18] = biological target: Tyrosine-protein kinase receptor UFO (Homo sapiens, UniProt P30530); assay: Inhibition of recombinant human AXL using poly(Glu,Tyr)4:1 as substrate incubated for 60 mins by ELISA
[19] = biological target: Vascular endothelial growth factor receptor 2 (Homo sapiens, UniProt P35968); assay: Inhibition of N-terminal His6-tagged recombinant human KDR (790 residues) expressed in insect Sf21 cells using poly(Glu,Tyr)4:1 as substrate incubated for 60 mins by ELISA
[20] = tested on: NIH3T3; assay: Antitumor activity against mouse NIH/3T3 cells expressing wild type EML4-ALK xenografted in nude mouse assessed as tumor stasis at 20 to 40 mg/kg, po qd administered for 10 days; type: functional, organism-based
[21] = tested on: NIH3T3; assay: Antitumor activity against mouse NIH/3T3 cells expressing wild type EML4-ALK xenografted in nude mouse assessed as partial tumor regression at 20 to 40 mg/kg, po qd administered for 10 days; type: functional, organism-based
[22] = tested on: Mus musculus; assay: Toxicity in nude mouse assessed as weight loss at 20 to 40 mg/kg, po qd administered for 10 days; type: organism-based; details: in vivo, 240 h
[23] = Antitumor activity against mouse NIH/3T3 cells expressing wild type EML4-ALK xenografted in nude mouse assessed as tumor growth inhibition at 20 mg/kg, po qd administered for 10 days; type: functional; details: NIH3T3, po, 240 h, read-out: TGI
[24] = tested on: NIH3T3; assay: Antitumor activity against mouse NIH/3T3 cells expressing EML4-ALK L1196M mutant xenografted in nude mouse assessed as tumor stasis at 40 mg/kg, po qd administered for 10 days; type: functional, organism-based
[25] = biological target: Epidermal growth factor receptor (Homo sapiens, UniProt P00533, L858R/T790M); assay: Inhibition of N-terminal GST-tagged recombinant human EGFR T790M/L858R double mutant (696 residues) expressed in insect Sf21 cells using poly(Glu,Tyr)4:1 as substrate incubated for 60 mins by ELISA
[26] = Antitumor activity against mouse NIH/3T3 cells expressing EML4-ALK L1196M mutant xenografted in nude mouse assessed as tumor growth inhibition at 20 mg/kg, po qd administered for 10 days; type: functional; details: NIH3T3, po, 240 h, read-out: TGI
[27] = biological target: Tyrosine-protein kinase ABL1 (Mus musculus, UniProt P00520); assay: Inhibition of N-terminal His6-tagged recombinant mouse ABL (27 to 1123 residues) expressed in insect Sf21 cells using poly(Glu,Tyr)4:1 as substrate incubated for 60 mins by ELISA
Sequence of Tyrosine-protein kinase ABL1 (P00520 whole entry, the tested form may be a part): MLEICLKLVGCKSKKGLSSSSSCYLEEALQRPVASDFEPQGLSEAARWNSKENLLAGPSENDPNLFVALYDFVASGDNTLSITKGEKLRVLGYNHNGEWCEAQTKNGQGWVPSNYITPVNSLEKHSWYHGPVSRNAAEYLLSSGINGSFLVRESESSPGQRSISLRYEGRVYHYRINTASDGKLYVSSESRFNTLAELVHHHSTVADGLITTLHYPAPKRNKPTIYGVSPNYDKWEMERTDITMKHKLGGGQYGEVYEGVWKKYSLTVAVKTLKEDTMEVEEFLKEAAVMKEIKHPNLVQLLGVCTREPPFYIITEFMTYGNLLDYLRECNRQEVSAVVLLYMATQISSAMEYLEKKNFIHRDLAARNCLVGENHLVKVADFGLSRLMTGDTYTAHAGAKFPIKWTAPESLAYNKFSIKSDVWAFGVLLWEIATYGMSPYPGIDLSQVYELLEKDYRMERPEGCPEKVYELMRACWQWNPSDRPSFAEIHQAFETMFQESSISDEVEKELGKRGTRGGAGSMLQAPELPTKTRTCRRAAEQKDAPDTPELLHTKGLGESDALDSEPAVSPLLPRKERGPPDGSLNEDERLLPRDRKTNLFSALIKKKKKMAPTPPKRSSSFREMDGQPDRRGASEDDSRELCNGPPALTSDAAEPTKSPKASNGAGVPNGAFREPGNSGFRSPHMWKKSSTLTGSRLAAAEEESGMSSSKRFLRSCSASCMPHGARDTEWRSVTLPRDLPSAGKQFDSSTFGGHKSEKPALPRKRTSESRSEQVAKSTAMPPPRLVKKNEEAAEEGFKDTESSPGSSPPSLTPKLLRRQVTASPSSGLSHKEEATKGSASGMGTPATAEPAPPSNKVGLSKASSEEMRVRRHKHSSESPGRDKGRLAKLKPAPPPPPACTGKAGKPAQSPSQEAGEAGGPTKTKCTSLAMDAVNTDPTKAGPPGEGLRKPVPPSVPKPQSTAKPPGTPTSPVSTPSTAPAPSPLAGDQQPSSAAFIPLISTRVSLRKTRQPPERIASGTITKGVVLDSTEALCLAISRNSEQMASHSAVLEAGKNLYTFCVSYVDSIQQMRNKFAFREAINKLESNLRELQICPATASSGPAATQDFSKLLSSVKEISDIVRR

[28] = biological target: T1, Proto-oncogene tyrosine-protein kinase receptor Ret; assay: Inhibition of RET (unknown origin) phosphorylation at […] residue in mouse BaF3/CCDC6-RET cells after 1 hr by Western blot analysis; type: cell-based
[29] = biological target: T1, Proto-oncogene tyrosine-protein kinase receptor Ret; assay: biochemical
[30] = biological target: Platelet-derived growth factor receptor beta (Homo sapiens, UniProt P09619); assay: Inhibition of N-terminal His6-tagged recombinant human PDGFRbeta (557 residues) expressed in insect Sf21 cells using poly(Glu,Tyr)4:1 as substrate incubated for 60 mins by ELISA
[31] = biological target: Receptor tyrosine-protein kinase erbB-2 (Homo sapiens, UniProt P04626); assay: Inhibition of human ErbB2 using poly(Glu,Tyr)4:1 as substrate incubated for 60 mins by ELISA
[32] = biological target: Receptor tyrosine-protein kinase erbB-4 (Homo sapiens, UniProt Q15303); assay: Inhibition of N-terminal His6-tagged recombinant human ErbB4 (709 to 991 residues) expressed in insect Sf21 cells using poly(Glu,Tyr)4:1 as substrate incubated for 60 mins by ELISA
[33] = biological target: Leukocyte tyrosine kinase receptor (Homo sapiens, UniProt P29376); assay: Inhibition of recombinant LTK (unknown origin) using poly(Glu,Tyr)4:1 as substrate incubated for 60 mins by ELISA
[34] = biological target: Mast/stem cell growth factor receptor Kit (Homo sapiens, UniProt P10721); assay: Inhibition of N-terminal GST-tagged recombinant human c-Kit (544 residues) expressed in insect Sf21 cells using poly(Glu,Tyr)4:1 as substrate incubated for 60 mins by ELISA
[35] = biological target: Macrophage-stimulating protein receptor (Homo sapiens, UniProt Q04912); assay: Inhibition of N-terminal His6-tagged recombinant human Ron (983 residues) expressed in insect Sf21 cells using poly(Glu,Tyr)4:1 as substrate incubated for 60 mins by ELISA
[36] = biological target: Tyrosine-protein kinase receptor TYRO3 (Homo sapiens, UniProt Q06418); assay: Inhibition of N-terminal His6-tagged recombinant human TYRO3 (451 residues) expressed in insect Sf21 cells using poly(Glu,Tyr)4:1 as substrate incubated for 60 mins by ELISA
[37] = biological target: T1, Proto-oncogene tyrosine-protein kinase receptor Ret; assay: Inhibition of RET (unknown origin) in mouse BaF3/CCDC6-RET cells assessed as suppression of AKT phosphorylation at S473 residue after 1 hr by Western blot analysis; type: cell-based
[38] = biological target: Hepatocyte growth factor receptor (Homo sapiens, UniProt P08581); assay: Inhibition of N-terminal His6-tagged recombinant human c-Met (974 residues) expressed in insect Sf21 cells using poly(Glu,Tyr)4:1 as substrate incubated for 60 mins by ELISA
[39] = Antitumor activity against mouse NIH/3T3 cells expressing wild type EML4-ALK xenografted in nude mouse assessed as tumor growth inhibition at 40 mg/kg, po qd administered for 10 days; type: functional; details: NIH3T3, po, 240 h, read-out: TGI
[40] = biological target: Proto-oncogene tyrosine-protein kinase ROS (Homo sapiens, UniProt P08922); assay: Inhibition of recombinant ROS1 (unknown origin) using poly(Glu,Tyr)4:1 as substrate incubated for 60 mins by ELISA
[41] = biological target: Insulin-like growth factor 1 receptor (Homo sapiens, UniProt P08069); assay: Inhibition of N-terminal His6-tagged recombinant human IGF-1R (959 residues) expressed in insect Sf21 cells using poly(Glu,Tyr)4:1 as substrate incubated for 60 mins by ELISA
[42] = Antitumor activity against mouse NIH/3T3 cells expressing EML4-ALK L1196M mutant xenografted in nude mouse assessed as tumor growth inhibition at 40 mg/kg, po qd administered for 10 days; type: functional; details: NIH3T3, po, 240 h, read-out: TGI
[43] = tested on: NIH3T3; assay: Antitumor activity against mouse NIH/3T3 cells expressing EML4-ALK L1196M mutant xenografted in nude mouse assessed as partial tumor regression at 40 mg/kg, po qd administered for 10 days; type: functional, organism-based

CCc1cc2c(cc1N1CCC(N3CCOCC3)CC1)C(C)(C)c1[nH]c3cc(C#N)ccc3c1C2=O [ALECTINIB]
IC50 [1]: 17.9 nM | inhibition in vivo at 50 mg/kg [2]: 83.5% | IC50 [3]: 15 nM | Activity [4]: Active | Activity [5]: Active | IC50 [6]: 20.5 nM | IC50 [7]: 132 nM | inhibition in vivo at 50 mg/kg [8]: 103% | IC50 [9]: 32.3 nM | IC50 [10]: 17.4 nM

CC1(C)c2cc(C3CCN(CC4CCOCC4)CC3)ccc2C(=O)c2c1[nH]c1cc(C#N)ccc21
IC50 [11]: 402 nM | IC50 [12]: 85.7 nM | IC50 [13]: 75.4 nM | IC50 [1]: 22.9 nM | inhibition [14]: Dose-dependent effect | IC50 [15]: > 1000 nM | IC50 [3]: 44.8 nM | inhibition [16]: Dose-dependent effect | IC50 [17]: 159 nM | IC50 [18]: 170 nM | IC50 [19]: 104 nM | Activity [20]: Active | Activity [21]: Active | Activity [22]: Non-toxic | inhibition in vivo at 20 mg/kg [23]: 102% | Activity [24]: Active | IC50 [25]: 350 nM | inhibition in vivo at 20 mg/kg [26]: 56.9% | IC50 [27]: > 1000 nM | inhibition [28]: Dose-dependent effect | IC50 [29]: 1.6 nM | IC50 [30]: 64.2 nM | IC50 [31]: > 1000 nM | IC50 [32]: 213 nM | IC50 [33]: 43.1 nM | IC50 [6]: 48.3 nM | IC50 [7]: 196 nM | IC50 [34]: > 1000 nM | IC50 [35]: 93.4 nM | IC50 [36]: 71.9 nM | inhibition [37]: Dose-dependent effect | IC50 [38]: > 1000 nM | IC50 [9]: 46.7 nM | inhibition in vivo at 40 mg/kg [39]: 102% | IC50 [10]: 43.3 nM | IC50 [40]: > 1000 nM | IC50 [41]: 27.8 nM | inhibition in vivo at 40 mg/kg [42]: 87.3% | Activity [43]: Active
